Measured values published in publication PMC12040169 (PLOS Biology, 2025).

experiment: in vitro; details: human, hela cells, % viability

Structure (SMILES)	viability at 28.5 h, 10 µM [%]
O=C(OCCC1SC(NC2CC3C=CC2C3)=NC1=O)c1cc(C(F)(F)F)ccc1C(F)(F)F (stereo not shown) [CBK200058T]	88.1
O=C(OCCC1SC(NC2CC3C=CC2C3)=NC1=O)c1c(F)cccc1Cl (stereo not shown) [CBK200061T]	88.7
CC(C)(C)c1ccc(S(=O)(=O)N2CCCC[C@H]2COC(=O)c2nccnc2C(=O)O)cc1 [CBK200065]	91.6
CC(C)(C)c1ccc(S(=O)(=O)N2CCCCC2CCO)cc1[N+](=O)[O-] (stereo not shown) [CBK200067]	93.9
C1CCc2nnc(C34CC5CC(CC(C5)C3)C4)n2CC1 [CBK200068]	83.5
CN(C)CCCNC(=O)C1CCCCN1S(=O)(=O)c1ccc(C(C)(C)C)cc1 (stereo not shown) [CBK200070]	101
C=C(C)Cn1c(SCC(C)C)nnc1-c1ccccc1OC [CBK200071]	91.5
C=C(C)Cn1c(SC(C)C)nnc1-c1ccccc1OC [CBK200072]	97.1
C=C(C)Cn1c(SC(C)C)nnc1-c1cccnc1 [CBK200073]	85.7
C=C(C)Cn1c(SCC(C)C)nnc1-c1ccccc1Cl [CBK200078]	92.4
C=C(C)Cn1c(SC(C)C)nnc1-c1ccccc1Cl [CBK200079]	99.9
C=C(C)Cn1c(SCC(C)C)nnc1-c1ccccc1OC(F)(F)F [CBK200080]	97.7
C=C(C)Cn1c(SC(C)C)nnc1-c1ccccc1OC(F)(F)F [CBK200081]	114
C=C(C)Cn1c(Cc2ccccc2)nnc1SCC(C)C [CBK200082]	102
C=C(C)Cn1c(Cc2ccccc2)nnc1SC(C)C [CBK200083]	92
C=C(C)Cn1c(SCC(C)C)nnc1-c1cccs1 [CBK200086]	96.5
C=C(C)Cn1c(Cc2c[nH]c3ccccc23)nnc1SCC(C)C [CBK200087T]	98.6
Cc1ccccc1-c1nnc2n1CCCN2 [CBK200089]	115
C=C(C)Cn1c(SCC(C)C)nnc1-c1ccccc1C(=O)O [CBK200093]	90.1
C=C(C)Cn1c(SCC(C)C)nnc1-c1ccc(O)nc1 [CBK200094]	92.2
C=C(C)Cn1c(SCC(C)C)nnc1-c1scc(C)c1Cl [CBK200095]	92.7
C=C(C)Cn1c(SCC(C)C)nnc1-c1ccccc1C(=O)NC(C)C [CBK200096]	87.8
CC(C)Cc1nnc(-c2ccccc2Cl)n1CC1CC1 [CBK200097]	98.1
COc1cc(C(O)c2cc3c(cc2CO)OCO3)cc(OC)c1OC (stereo not shown) [CBK200098]	100
COC(=O)C1C(=O)c2cc3c(cc2C1c1cc(OC)c(OC)c(OC)c1)OCO3 (stereo not shown) [CBK200099]	92.5

Structure (SMILES)	viability at 28.5 h, 10 µM [%]
COc1ccc(C(C)c2cc3c(cc2O)OCO3)cc1 (stereo not shown) [CBK200100]	90.3
COc1ccc(C(C)c2cc3c(cc2O)OCO3)c(F)c1 (stereo not shown) [CBK200101]	98.1
COc1ccc(C(C)c2cc3c(cc2N)OCO3)cc1 (stereo not shown) [CBK200102T]	87.2
COC(=O)[C@H]1Cc2cc3c(cc2[C@H]1c1cc(OC)c(OC)c(OC)c1)OCO3 [CBK200105]	54.8
COc1cc([C@@H]2c3cc4c(cc3[C@H](O)[C@H]2C(=O)Nc2ccccc2)OCO4)cc(OC)c1OC [CBK200106]	101
COc1cc(C(C)c2cc3c(cc2OCC(=O)O)OCO3)cc(OC)c1OC (stereo not shown) [CBK200109]	90.5
COc1ccc(C(C)c2cc3c(cc2OCCO)OCO3)c(F)c1 (stereo not shown) [CBK200111]	60.4
COc1ccc(C(C)c2cc3c(cc2OC)OCO3)c(F)c1 (stereo not shown) [CBK200112]	53.3
O=C(O)Cc1sc(NCCN2CCOCC2)nc1-c1ccccc1 [CBK200113T]	88.7
O=C(O)CC1SC(Nc2ccc(F)cc2F)=NC1=O (stereo not shown) [CBK200115]	99.3
C[C@@H]1CN(C(=O)c2ccc3[nH]cnc3c2)C[C@H](C)O1 [CBK200120]	106
Cc1nc(C(F)(F)F)ccc1COC(=O)N1CCOCC1 [CBK200122]	85.9
Cc1cnc(COC(=O)N2C[C@@H](C)O[C@@H](C)C2)cn1 [CBK200124]	81.4
O=C(Nc1cnc2ccccc2c1)OCCc1cccnc1 [CBK200126]	93.5
Cc1cc(COC(=O)Nc2ccc3nc(C)ccc3c2)cc(C)n1 [CBK200127]	90.5
Cc1ncccc1COC(=O)Nc1cnc2ccccc2c1 [CBK200128]	95.9
CN1CCC(COC(=O)Nc2ccc3cc[nH]c3c2)CC1 [CBK200130]	98.7
Cc1cc(COC(=O)N2CCc3ccccc32)cc(C)n1 [CBK200134]	81.4
Cc1ccc(NC(=O)OCCN2CCN(C)CC2)c(C)n1 [CBK200135]	106
Cc1cc(COC(=O)NCc2ccncc2)cc(C)n1 [CBK200136]	99.4
Cc1ncccc1COC(=O)NCCc1ccccn1 [CBK200137]	104
Cc1ncccc1COC(=O)N1Cc2ccccc2C1 [CBK200138]	91.1
CN1CCN(CCOC(=O)NCc2ccnc3ccccc23)CC1 [CBK200148]	94
Cc1cc(COC(=O)N2CCCC(C(F)(F)F)C2)cc(C)n1 (stereo not shown) [CBK200150]	92.8
Cc1cc(COC(=O)N2CCCC(F)(F)C2)cc(C)n1 [CBK200151]	125

Structure (SMILES)	viability at 28.5 h, 10 µM [%]
Cc1cc(COC(=O)N2CCC(CO)CC2)cc(C)n1 [CBK200152]	91
Cc1cc(COC(=O)N2CCSCC2)cc(C)n1 [CBK200153]	107
Cc1ncccc1COC(=O)N1CCC(C(F)(F)F)CC1 [CBK200154]	102
Cc1ncccc1COC(=O)N1CCCC(F)C1 (stereo not shown) [CBK200155]	118
O=C(OCCc1ccncc1)N1CCC(F)(F)CC1 [CBK200158]	105
O=C(OCCc1cccnc1)N1CCSCC1 [CBK200160]	103
O=C(OCc1csc2ccc(Cl)cc12)N1CCOCC1 [CBK200164]	94.7
COc1ncccc1C(=O)N1CCN(c2ccccc2)CC1 [CBK200166]	103
COc1ccc(C(=O)N2CCN(Cc3ccccc3)CC2)c(OC)n1 [CBK200169]	99.2
Cc1ccc(C(=O)N2CCN(Cc3ccccc3)CC2)cn1 [CBK200170]	93.6
O=C(c1cc2ccccc2[nH]1)N1CCN(Cc2ccccc2)CC1 [CBK200172]	118
Cc1noc(C)c1C(=O)N1CCN(Cc2ccccc2)CC1 [CBK200173]	90.9
O=C(c1nccc2ccccc12)N1CCN(Cc2ccccc2)CC1 [CBK200176]	98
Cn1cncc1C(=O)N1CCN(Cc2ccccc2)CC1 [CBK200178]	98.2
Cc1ccc(C(=O)N2CCC(Cc3ccccc3)CC2)cn1 [CBK200179]	94.7
O=C(c1c[nH]c2ccccc12)N1CCC(Cc2ccccc2)CC1 [CBK200180]	91.3
Cn1cccc1C(=O)N1CCC(Cc2ccccc2)CC1 [CBK200182]	102
O=C(c1ccno1)N1CCC(Cc2ccccc2)CC1 [CBK200185]	112
CCOc1ccsc1C(=O)N1CCC(Cc2ccccc2)CC1 [CBK200186]	114
Cc1cc(C(=O)N2CCC(Cc3ccccc3)CC2)n[nH]1 [CBK200187]	84.2
O=C(c1cscn1)N1CCC(Cc2ccccc2)CC1 [CBK200188]	103
COc1ccc(C(=O)NCc2ccccc2)c(OC)n1 [CBK200190]	142
O=C(c1cccc2[nH]ccc12)N1CCN(CCc2ccccc2)CC1 [CBK200203]	104
O=C(c1cncnc1)N1CCC(Cc2ccccc2)CC1 [CBK200212]	92.8
O=C(c1cnc2ccccc2n1)N1CCN(CCc2ccccc2)CC1 [CBK200214]	91

Structure (SMILES)	viability at 28.5 h, 10 µM [%]
Cc1ccc(NC(=O)c2ccc3nccnc3c2)c(C)n1 [CBK200219]	93.6
Cc1noc(C)c1NC(=O)c1cnc2ccccc2n1 [CBK200220]	98.1
Cc1noc(C)c1NC(=O)c1ccc2nccnc2c1 [CBK200221]	84.1
Cc1noc(C)c1C(=O)N1CCN(CCc2ccccc2)CC1 [CBK200225]	95.8
COc1ncccc1C(=O)N1CCN(CCc2ccccc2)CC1 [CBK200226]	88.4
O=C(c1ccc(CCN2CCCC2)nc1)N1CCN(CCc2ccccc2)CC1 [CBK200227]	91.6
COc1ccc(C(=O)N2C[C@@H](C)O[C@@H](C)C2)c(OC)n1 [CBK200231]	92.2
C[C@@H]1CN(C(=O)c2n[nH]c3ccccc23)C[C@H](C)O1 [CBK200232]	98.6
C[C@@H]1CN(C(=O)c2nccc3ccccc23)C[C@H](C)O1 [CBK200233]	92.8
C[C@@H]1CN(C(=O)c2cc3ccccc3n2C)C[C@H](C)O1 [CBK200234]	91.4
O=C(NC1CCCC1)c1cccnc1 [CBK200236]	111
O=C(Cc1c[nH]c2ccccc12)NC1CCCC1 [CBK200238]	76.1
O=C(CCc1cccnc1)NC1CCCC1 [CBK200239]	97.9
O=C(OCc1ccccc1)N1CCN(c2ccccc2)CC1 [CBK200241]	116
CC(OC(=O)N1CCN(c2ccccc2)CC1)c1ccccc1 (stereo not shown) [CBK200243]	104
O=C(NCc1ccccc1)c1ccc(N2CCOCC2)nc1 [CBK200244]	96.3
CCN1CCN(C(=O)c2cccn2C)CC1 [CBK200248]	84.7
CCN1CCN(C(=O)c2ccc3ccccc3n2)CC1 [CBK200249]	133
CCN1CCN(C(=O)c2ccc(N(C)C)cc2)CC1 [CBK200252]	96.4
CCN1CCN(C(=O)Cc2cn(C)c3ccccc23)CC1 [CBK200254]	96.9
O=C(Cn1cnnn1)NCc1ccccc1 [CBK200255]	83.6
Cn1cncc1C(=O)NC1CCCC1 [CBK200256]	95.5
